Data: patent publication US4340539A, “Derivatives of 6-bromo penicillanic acid” (priority 1980, dated 1982)
Read-outs that look alike come from different tables or passages of the source.

Tests used:
bacteria = test: Antibacterial activity (statement); type: cell-based
S. aureus A-9606 = test: Therapeutic efficacy in mice experimentally infected with a beta-lactamase strain of Staphylococcus aureus (Table 3); type: in vivo; details: for ED50: Staphylococcus aureus, A9606, challenge 5 × 10^8, read-out: PD50/Treatment
Description: Treatment schedule: Drugs administered 0 and 2 hours postinfection.

P. vulgaris = test: Antibacterial activity (MIC); type: cell-based; details: Proteus vulgaris; strain A21559
Bacteroides species = test: Anti-Bacteroides activity (MIC, agar dilution), alone and in combination with BL-P2013; type: cell-based
E. coli = test: Antibacterial activity (MIC); type: cell-based; details: Escherichia coli
S. faecalis = test: Antibacterial activity (MIC); type: cell-based; details: Enterococcus faecalis; strain A20688
β-lactamases = test: Inhibition of β-lactamases; type: biochemical
K. pneumoniae = test: Antibacterial activity (MIC); type: cell-based
B. thetaiotaomicron = test: Anti-Bacteroides activity (MIC, agar dilution), alone and in combination with BL-P2013; type: cell-based
Description: *Minimum inhibitory concentration (MIC) determined by the agar dilution
method using 50X dilutions of 24 hour cultures as inocula dispensed by th
Steer's inoculator. Assay medium composed of Brucella Agar plus 5% laked
sheep blood and 10 mcg/ml vitamin K.

P. mirabilis = test: Antibacterial activity (MIC); type: cell-based; details: Proteus mirabilis; strain A-9900
S. marcescens = test: Antibacterial activity (MIC); type: cell-based; details: Serratia marcescens; strain A20019
S. pneumoniae = test: Antibacterial activity (MIC); type: cell-based; details: Streptococcus pneumoniae; strain A-9585
[1] = test system: β-lactamase producing strains of S. aureus; test: animal or person; type: in vivo, mice; details: Staphylococcus aureus, in Mus musculus, po
Description: (§1) Drugs were administered orally at 0 and 2 hours postinfection.
(§2) Drugs were suspended in TCMC.

[2] = test system: β-lactamase producing strains of E. coli; test: animal or person; type: in vivo, mice; details: Escherichia coli, in Mus musculus, po
Description: as §1, §2

S. pyogenes = test: Antibacterial activity (MIC); type: cell-based; details: Streptococcus pyogenes; strain A-9604
P. rettgeri = test: Antibacterial activity (MIC); type: cell-based; details: Providencia rettgeri; strain A21203
P. morganii = test: Antibacterial activity (MIC); type: cell-based; details: Morganella morganii; strain A15153
S. aureus = test: Antibacterial activity (MIC); type: cell-based; details: Staphylococcus aureus
P. aeruginosa = test: Antibacterial activity (MIC); type: cell-based
[3] = test system: β-lactamase-producing bacteria; test: Protection of ceforanide and amoxicillin from destruction by β-lactamase-producing bacteria; details: in vitro and in vivo, in combination
B. fragilis = test: Anti-Bacteroides activity (MIC, agar dilution), alone and in combination with BL-P2013; type: cell-based
E. cloacae = test: Antibacterial activity (MIC); type: cell-based; details: Enterobacter cloacae
[4] = Blood levels after oral administration to mice (Table 4); type: in vivo; details: mouse; for concentration at 0.5 h: 30 min; for concentration at 1 h: 60 min; for concentration at 2 h: 120 min
[5] = 100 mg/kg, oral 100 mg/kg, assay organism E. coli A-9675, read-out: Blood level
[6] = 100 mg/kg, oral 100 mg/kg, assay organism S. aureus A-9606, read-out: Blood level
[7] = 200 mg/kg, oral 200 mg/kg, assay organism S. aureus A-9606, read-out: Blood level

With `CC1(CCl)C(C(=O)O)N2C(=O)CC2S1(=O)=O` (stereo not drawn) [BL-P2013, Potassium 2β-Chloromethyl-2α-methylpenam-3α-carboxylate Sulfone] the antibacterial activity (bacteria) was “at best a very weak antibacterial agent”, the PD50/Treatment (S. aureus A-9606; IM, challenge 7 × 10^8) was over 50 mg/kg and the ED50 (S. aureus A-9606; IM) was over 50 mg/kg. For the same compound, the ED50 (S. aureus A-9606; PO) was over 200 mg/kg, the MIC (P. vulgaris) was over 125 µg/mL and the MIC (Bacteroides species; Bacteroides) was 63 µg/mL. The MIC (Bacteroides species; Bacteroides, strain A20929, β-lactamase +, read-out: MIC) was 32 µg/mL, the MIC (Bacteroides species; Bacteroides, strain A20930, β-lactamase +, read-out: MIC) was 125 µg/mL and the MIC (Bacteroides species; Bacteroides, strain A20931, β-lactamase +, read-out: MIC) was 32 µg/mL. The MIC (Bacteroides species; Bacteroides, strain A20934, β-lactamase +, read-out: MIC) was 32 µg/mL, the MIC (Bacteroides species; Bacteroides, strain A20935, β-lactamase -, read-out: MIC) was 125 µg/mL and the MIC (Bacteroides species; Bacteroides, strain A21959, β-lactamase +, read-out: MIC) was 32 µg/mL. For the same compound, the MIC (Bacteroides species; strain A20927-1, β-lactamase -) was 63 µg/mL, the MIC (Bacteroides species; strain A20933, β-lactamase +) was 63 µg/mL and the MIC (E. coli; strain A15119) was over 125 µg/mL. For the same compound, the MIC (E. coli; strain A20341-1) was over 125 µg/mL, the MIC (S. faecalis) was over 125 µg/mL and the β-lactamase inhibition (β-lactamases) was “inhibits β-lactamases”. The MIC (K. pneumoniae; Klebsiella pneumoniae, strain A15130, read-out: MIC) was over 125 µg/mL, the MIC (K. pneumoniae; strain A20468) was over 125 µg/mL and the MIC (B. thetaiotaomicron; Bacteroides thetaiotaomicron, strain A22277, β-lactamase +, read-out: MIC) was 63 µg/mL. For the same compound, the MIC (B. thetaiotaomicron; strain A22279, β-lactamase +) was 63 µg/mL, the MIC (P. mirabilis) was over 125 µg/mL and the MIC (S. marcescens) was over 125 µg/mL. It also gave an MIC (S. pneumoniae) of 16 µg/mL, an ED50 ([1]; read-out: PD50/Treatment, oral, S. aureus A9606, challenge 2 × 10^9) of over 200 mg/kg and an ED50 ([1]; read-out: PD50/Treatment, oral, S. aureus A9606, challenge 7 × 10^8) of over 200 mg/kg. For the same compound, the ED50 ([1]; read-out: PD50/Treatment, oral, S. aureus A15091, challenge 4 × 10^8) was over 200 mg/kg, the ED50 ([1]; read-out: PD50/Treatment, oral, S. aureus A15091, challenge 5 × 10^8) was over 200 mg/kg and the ED50 ([1]; read-out: PD50/Treatment, oral, S. aureus A20379, challenge 5 × 10^8) was over 200 mg/kg. It also gave an ED50 ([1]; read-out: PD50/Treatment, oral, S. aureus A20379, challenge 6 × 10^8) of 174 mg/kg, an ED50 ([2]; read-out: PD50/Treatment, oral, E. coli A9675, challenge 6 × 10^5) of over 200 mg/kg and an ED50 ([2]; read-out: PD50/Treatment, oral, E. coli A9675, challenge 7 × 10^5) of over 100 mg/kg. It also gave an ED50 ([2]; read-out: PD50/Treatment, oral, E. coli A9675, challenge 8 × 10^5) of over 200 mg/kg, an ED50 ([2]; read-out: PD50/Treatment, oral, E. coli A20649, challenge 5 × 10^5) of over 200 mg/kg and an ED50 ([2]; read-out: PD50/Treatment, oral, E. coli A20649, challenge 6 × 10^5) of over 200 mg/kg. For the same compound, the ED50 ([2]; read-out: PD50/Treatment, oral, E. coli A21223, challenge 6 × 10^5) was over 200 mg/kg, the ED50 ([2]; read-out: PD50/Treatment, oral, E. coli A21223, challenge 7 × 10^5 (first line)) was over 200 mg/kg and the ED50 ([2]; read-out: PD50/Treatment, oral, E. coli A21223, challenge 7 × 10^5 (third line)) was over 200 mg/kg. The MIC (S. pyogenes) was 63 µg/mL, the MIC (P. rettgeri) was over 125 µg/mL and the MIC (P. morganii) was over 125 µg/mL. It also gave an MIC (S. aureus; strain A15097, Meth-Res) of over 125 µg/mL, an MIC (S. aureus; strain A-9537) of over 125 µg/mL and an MIC (S. aureus; strain A-9537, + 50% serum) of over 125 µg/mL. It also gave an MIC (S. aureus; strain A-9606, Pen-Res) of over 125 µg/mL, an MIC (P. aeruginosa; Pseudomonas aeruginosa, strain A-9843A, read-out: MIC) of over 125 µg/mL and an MIC (P. aeruginosa; strain A21213) of over 125 µg/mL. For the same compound, the “protection of ceforanide and amoxicillin from destruction” value [3] was “protected ceforanide and amoxicillin from destruction by β-lactamase-producing bacteria in vitro and in vivo”, the MIC (B. fragilis; strain A21875, β-lactamase +) was 63 µg/mL and the MIC (B. fragilis; strain A21916, β-lactamase +, read-out: MIC) was over 125 µg/mL. The MIC (B. fragilis; strain A22021, β-lactamase +, read-out: MIC) was 32 µg/mL, the MIC (B. fragilis; strain A22053, β-lactamase +) was 63 µg/mL and the MIC (B. fragilis; strain A22533, β-lactamase +, read-out: MIC) was 32 µg/mL. It also gave an MIC (B. fragilis; strain A22534, β-lactamase +, read-out: MIC) of 125 µg/mL, an MIC (B. fragilis; strain A22535, β-lactamase +, read-out: MIC) of 125 µg/mL and an MIC (B. fragilis; strain A22693, β-lactamase +) of 63 µg/mL. It also gave an MIC (B. fragilis; strain A22694, β-lactamase +) of 63 µg/mL, an MIC (B. fragilis; strain A22695, β-lactamase +, read-out: MIC) of 32 µg/mL and an MIC (B. fragilis; strain A22696, β-lactamase +) of 63 µg/mL. It also gave an MIC (B. fragilis; strain A22697, β-lactamase +) of 63 µg/mL, an MIC (B. fragilis; strain A22792, β-lactamase +, read-out: MIC) of 32 µg/mL and an MIC (B. fragilis; strain A22793, β-lactamase +, read-out: MIC) of 32 µg/mL. The MIC (B. fragilis; strain A22794, β-lactamase +, read-out: MIC) was 32 µg/mL, the MIC (B. fragilis; strain A22795, β-lactamase +, read-out: MIC) was 32 µg/mL and the MIC (B. fragilis; strain A22797, β-lactamase +) was 63 µg/mL. For the same compound, the MIC (B. fragilis; strain A22798, β-lactamase +) was 63 µg/mL, the MIC (E. cloacae; strain A-9656) was over 125 µg/mL and the MIC (E. cloacae; strain A-9659) was over 125 µg/mL. For the same compound, the concentration at […] ([4]; 100 mg/kg, oral 100 mg/kg, 15 min, assay organism E. coli A-9675, read-out: Blood level) was 4500 ng/mL, the concentration at […] ([4]; 100 mg/kg, oral 100 mg/kg, 15 min, assay organism S. aureus A-9606, read-out: Blood level) was 4600 ng/mL and the concentration at 0.5 h [4, 5] was 5100 ng/mL. It also gave a concentration at 0.5 h [4, 6] of 4100 ng/mL, a concentration at 1 h [4, 6] of 3000 ng/mL and a concentration at […] ([4]; 100 mg/kg, oral 100 mg/kg, 90 min, assay organism E. coli A-9675, read-out: Blood level) of 2300 ng/mL. It also gave a concentration at […] ([4]; 100 mg/kg, oral 100 mg/kg, 90 min, assay organism S. aureus A-9606, read-out: Blood level) of under 2600 ng/mL, a concentration at 2 h [4, 5] of 1500 ng/mL and a concentration at 2 h [4, 6] of under 2600 ng/mL. For the same compound, the concentration at […] ([4]; 100 mg/kg, oral 100 mg/kg, 150 min, assay organism S. aureus A-9606, read-out: Blood level) was under 2600 ng/mL, the half-life ([4]; 100 mg/kg, oral 100 mg/kg, assay organism E. coli A-9675) was 50 min and the concentration at […] ([4]; 200 mg/kg, oral 200 mg/kg, 15 min, assay organism S. aureus A-9606, read-out: Blood level) was 7400 ng/mL. For the same compound, the concentration at 0.5 h [4, 7] was 9800 ng/mL, the concentration at 1 h [4, 7] was 7100 ng/mL and the concentration at […] ([4]; 200 mg/kg, oral 200 mg/kg, 90 min, assay organism S. aureus A-9606, read-out: Blood level) was 4100 ng/mL. The concentration at 2 h [4, 7] was 2800 ng/mL, the concentration at […] ([4]; 200 mg/kg, oral 200 mg/kg, 150 min, assay organism S. aureus A-9606, read-out: Blood level) was under 2600 ng/mL and the half-life ([4]; 200 mg/kg, oral 200 mg/kg, assay organism S. aureus A-9606) was 50 min.
